Assay results: patent publication US20060213838A1, “Elution test method and apparatus” (SHIMADZU CORPORATION, priority 2005, published 2006)

Experiments:
[1] = change with time of residual concentration of specific component A in test liquid (HPLC); format: physicochemical; details: 50 mM phosphoric acid buffer solution pH6.8, 37° C., initial 0.1 mg/mL
Procedure: The specific component A is an unstable pharmaceutical in an elution test under neutral condition and is sodium rabepranazole. The test liquid used to the elution test is a 50 mM phosphoric acid buffer solution (pH6.8, 37° C.) in order to neutralize the elution condition for the specific component A.

[2] = elution test of the preparation by absorbance measurement method; format: physicochemical; details: preparation C containing impurity component B, six specimens
Text: The following describes a method for determining the specific component A alone while eliminating the influence of the impurity component B that hinders determination from the test liquid into which the specific component A and the impurity component B are eluted from the preparation C
The wavelengths to be set are 234 nm (λ1) and 287 nm (λ2) as isosbestic point wavelengths in a system including the specific component A and its decomposed matter in the preparation C. Assuming that the absorbances of the specific component A as A234nm(t) and A287nm(t) and the absorbances of the impurity component B as B234nm(t) and B287nm(t), the absorbances of the synthesis spectrum C234nm(t) and C287nm(t) will be represented as follows. C234nm(t)=A234nm(t)+B234nm(t) (3) C287nm(t)=A287nm(t)+B287nm(t) (4) Considering the spectrum of the impurity component B, the ratio of absorbance of the wavelengths of 234 nm and 287 nm is constant and independent of time (or concentration). This obtains the expression (5). B234nm(t)/B287nm(t)=k (5)
k and k′ are constants. From the absorbance measurement values at two isosbestic point wavelengths of the elution test liquid, the concentration of the specific component A alone is obtained by solving the simultaneous equation of the expression (7) and (8). […]

COCCCOc1ccnc(C[S+]([O-])c2nc3ccccc3[n-]2)c1C.[Na+] (stereo not shown) [specific component A, sodium rabepranazole]
time for residual concentration to decrease to half the initial concentration [1]: ≤ 40 min | residual concentration of the specific component A ([1]; within 40 minutes): 0.05 mg/mL | elution ratio ([2]; double-wavelength absorbance measurement method (234 nm and 287 nm)): around 100% | elution ratio ([2]; single-wavelength absorbance measurement method (234 nm)): 140%
